Measured values taken from patent US12446577B2 (priority 2018, dated 2025).

How the values were obtained:
lettuce plants = test: Phytotoxicity on lettuce plants after spraying; type: in vivo; details: 2.5% pelargonic acid, sprayed until run-off, n = 6, scale 0 to 100%
Experimental: A neutralization reaction was made with pelargonic acid (>97%) and choline hydroxide (45%) based on the titration curve (FIG. 1). Based on the titration curve, a stock solution of choline pelargonate (29.1% PLA (>97%) and 40.4% Choline hydroxide (45%)) was made by mixing 14.55 mL pelargonic acid with 15.25 mL distilled water and afterwards the addition of 20.2 mL choline hydroxide. The choline pelargonate stock solution was diluted in distilled water to obtain a diluted choline pelargonate composition comprising about 2.5% pelargonic acid. The total concentration of choline pelargonate in the water spray solution was 37.08 g a.i./L (a.i.=active ingredient).
The next step was to assess the phytotoxicity of a composition comprising choline pelargonate on lettuce plants. As a control, plants were treated with water. The plants were also treated with a diluted pelargonic acid composition, including a diluted pelargonic acid solution based on the commercial product Beloukha (Belchim Crop Protection).
Lettuce plants were sprayed with a small hand sprayer until run-off with the respective compositions and incubated at 20° C. Each composition was tested with a setup consisting out of six plants. A visual assessment was made on lettuce plants after spraying. The effect of phytotoxicity (necrosis or discolouration) was scored by a scale from 0 to 100%, with 0% no phytotoxicity and 100% fully phytotoxicity on plants.

Colletotrichum coccodes = test: Mycelium growth inhibition on PDA (Example 2); type: cell-based; details: 6 days at 25° C; for Average mycellium diameter: n = 4; for % inhibition of the pathogens: vs untreated PDA
Experimental: (§1) Strains used for this trial (Table 3) were kept and refreshed on Potato Dextrose Agar (PDA) at 25° C.
(§2) In a first setup, a test composition was directly added to PDA (about 20 mL/petri dish) (Table 4). Plugs of agar (diameter 8 mm) from two week-old cultures were placed at the center of the PDA plates. Each test was performed in 4 repetitions. The petri dishes were then incubated at 25° C. After 6 days of incubation, the diameter of the colonies was measured in 2 perpendicular directions. The percentage of inhibition was calculated for each tested composition and compared to the untreated PDA.

Alternaria solani = test: Mycelium growth inhibition on PDA (Example 2); type: cell-based; details: 6 days at 25° C; for Average mycellium diameter: n = 4; for % inhibition of the pathogens: vs untreated PDA
Experimental: as §1, §2

`CCCCCCCCC(=O)[O-].C[N+](C)(C)CCO` [Choline pelargonate, choline pelargonate] was tested, and the “Phytotoxicity (%) evaluation on lettuce plants” value (“Phytotoxicity (%) evaluation” below) (lettuce plants; 0 DAA) was 0.00%, the “Phytotoxicity (%) evaluation” value (lettuce plants; 1 DAA) was 1.33% and the “Phytotoxicity (%) evaluation” value (lettuce plants; 2 DAA) was 1.67%. For the same compound, the “Phytotoxicity (%) evaluation” value (lettuce plants; 7 DAA) was 3.50%, the Average mycellium diameter (Colletotrichum coccodes; 0.36% AI in PDA) was 0.0 ± 0.0 mm and the “% inhibition of the pathogens” value (Colletotrichum coccodes; 0.36% AI in PDA) was 100%. For the same compound, the Average mycellium diameter (Colletotrichum coccodes; 3.6% AI in PDA) was 0.0 ± 0.0 mm, the “% inhibition of the pathogens” value (Colletotrichum coccodes; 3.6% AI in PDA) was 100% and the Average mycellium diameter (Alternaria solani; 0.36% AI in PDA) was 0.0 ± 0.0 mm. The “% inhibition of the pathogens” value (Alternaria solani; 0.36% AI in PDA) was 100%, the Average mycellium diameter (Alternaria solani; 3.6% AI in PDA) was 0.0 ± 0.0 mm and the “% inhibition of the pathogens” value (Alternaria solani; 3.6% AI in PDA) was 100%.
